{"source": "paper PMC7002416", "about": "“Probiotic properties of a phytase producing Pediococcus acidilactici strain SMVDUDB2 isolated from traditional fermented cheese product, Kalarei” (Scientific Reports, 2020)", "test_system": "phytase (extracellular phytase from P. acidilactici SMVDUDB2)", "conditions": "0.1-1.8 mM sodium phytate, 0.2 M sodium acetate pH 5.5", "data": [{"molecule": "O=P(O)(O)O[C@H]1[C@H](OP(=O)(O)O)[C@@H](OP(=O)(O)O)[C@H](OP(=O)(O)O)[C@@H](OP(=O)(O)O)[C@H]1OP(=O)(O)O", "note": "[sodium phytate]", "values": [{"measurement": "Km", "result": 385, "unit": "µM"}]}]}
